# Test system: SAUR 9218
# Experiment: MIC Test Method, standard agar dilution
# Format: cell-based
# Details: agar dilution, Mueller Hinton agar, incubated overnight at 35° C.; lowest concentration that inhibits visible growth; read-out: SAUR 9218 MIC
# Description: The in vitro MiCs of test compounds were determined by a standard agar dilution method. A stock drug solution of each analog was prepared in the preferred solvent, usually DMSO:H2O (1:3). Serial 2-fold dilutions of each sample are made using 1.0 ml aliquots of sterile distil]ed water. To each 1.0 ml aliquot of drug was added 9 ml of molten Mueller Hinton agar medium. The drug-supplemented agar was mixed, poured into 15×100 mm petri dishes, and allowed to solidify and dry prior to inoculation.
# Vials of each of the test organisms are maintained frozen in the vapor phase of a liquid nitrogen freezer. Test cultures are grown overnight at 35° C. on the medium appropriate for the organism. Colonies are harvested with a sterile swab, and cell suspensions are prepared in Trypticase Soy broth (TSB) to equal the turbidity of a 0.5 McFamland standard. A 1:20 dilution of each suspension was made in TSB. The plates containing the drug supplemented agar are inoculated with a 0.001 ml drop of the cell suspension using a Steers replicator, yielding approximately 10^4 to 10^5 cells per spot. The plates are incubated overnight at 35° C.
# Following incubation the Minimum Inhibitory Concentration (MIC μg/ml), the lowest concentration of drug that inhibits visible growth of the organism, was read and recorded.
row,SMILES,MIC
1,O=C(Nc1ccc(Cl)cc1C(=O)O)c1cc(CCCC2CCCCC2)on1,4 µg/mL
2,COCCOCCCSc1cnc(C(=O)Nc2ccc(Cl)cc2C(=O)O)cn1,2 µg/mL
3,Cc1sc(C(=O)Nc2ccc(C#N)cc2C(=O)O)cc1S(=O)(=O)N(CCO)Cc1ccccc1,16 µg/mL
4,O=C(Nc1ccc(Br)cc1C(=O)O)c1cccc(SCc2ccccc2)n1,16 µg/mL
5,O=C(Nc1ccc(-c2ccccc2C(F)(F)F)cc1C(=O)O)c1cc(-c2ccccc2F)on1,8 µg/mL
6,N#Cc1ccc(NC(=O)c2cncc(C#CC3C=NNC3)c2)c(C(=O)O)c1 (stereo not shown),4 µg/mL
7,CNS(=O)(=O)c1ccc2onc(C(=O)Nc3ccc(C#N)cc3C(=O)O)c2c1,0.06 µg/mL
8,CCN(CC)c1ccc(NS(=O)(=O)c2cc(C(=O)Nc3ccc(Br)cc3C(=O)O)cs2)cc1,> 128 µg/mL
9,N#Cc1ccc(NC(=O)c2cc3cccc(NC(=O)c4ccno4)c3[nH]2)c(C(=O)O)c1,2 µg/mL
10,N#Cc1ccc(NC(=O)c2cc3cccc(N4C(=O)c5ccccc5C4=O)c3[nH]2)c(C(=O)O)c1,8 µg/mL
11,Cc1sc(C(=O)Nc2ccc(Br)cc2C(=O)O)cc1S(=O)(=O)NCc1ccc(N(C)C)cc1,16 µg/mL
12,COCC(=O)Nc1ccc2cc(C(=O)Nc3ccc(C#N)cc3C(=O)O)n(C)c2c1,2 µg/mL
13,N#Cc1ccc(NC(=O)c2cc(CNC(=N)N)on2)c(C(=O)O)c1,128 µg/mL
14,Cn1c(C(=O)Nc2ccc(C#N)cc2C(=O)O)cc2cccc(NS(=O)(=O)CS(C)(=O)=O)c21,2 µg/mL
15,Cc1sc(C(=O)Nc2ccc(C#N)cc2C(=O)O)cc1S(=O)(=O)N(CCC#N)Cc1ccccc1,64 µg/mL
16,Cc1sc(C(=O)Nc2ccc(C#N)cc2C(=O)O)cc1S(=O)(=O)N(C)CCC#N,128 µg/mL
17,Cc1nc2cc(NS(=O)(=O)c3cc(C(=O)Nc4ccc(Br)cc4C(=O)O)sc3C)ccc2s1,32 µg/mL
18,Cn1nc(-c2ccccc2)cc1C(=O)Nc1ccc(Br)cc1C(=O)O,64 µg/mL
19,COc1ccc(-c2cnc(C(=O)Nc3ccc(C#N)cc3C(=O)O)cn2)cn1,> 128 µg/mL
20,O=C(O)c1cc(Br)ccc1NC(=O)c1nc(N2CCOCC2)ncc1Cl,> 128 µg/mL
21,N#Cc1ccc(NC(=O)c2ccc(Cl)nc2)c(C(=O)O)c1,16 µg/mL
22,CC(=O)Nc1ccc2onc(C(=O)Nc3ccc(C#N)cc3C(=O)O)c2c1,2 µg/mL
23,Cc1sc(C(=O)Nc2ccc(Br)cc2C(=O)O)cc1S(=O)(=O)NCCc1ccc(N)cc1,32 µg/mL
24,N#Cc1ccc(NC(=O)c2cncc(-c3ccccc3C(F)(F)F)c2)c(C(=O)O)c1,2 µg/mL

row,SMILES,MIC
1,CC(=O)Oc1ccc2c(C(=O)Nc3ccc(C#N)cc3C(=O)O)noc2c1,1 µg/mL
2,C=CCn1c(C(=O)Nc2ccc(Cl)cc2C(=O)O)cc2ccccc21,1 µg/mL
3,N#Cc1ccc(NC(=O)c2cc3ccccc3[nH]2)c(C(=O)O)c1,2 µg/mL
4,N#Cc1ccc(NC(=O)C2=NOC(c3ccccc3)C2)c(C(=O)O)c1 (stereo not shown),4 µg/mL
5,O=C(Nc1ccc(Br)cc1C(=O)O)c1cc(CCCC2CCCCC2)on1,4 µg/mL
6,Cc1sc(C(=O)Nc2ccc(C#N)cc2C(=O)O)cc1S(=O)(=O)N(CC(C)C)CC(C)C,32 µg/mL
7,Cn1c(C(=O)Nc2ccc(I)cc2C(=O)O)cc2ccccc21,4 µg/mL
8,Cc1c(S(=O)(=O)NCCc2ccc(N)cc2)csc1C(=O)Nc1ccc(Br)cc1C(=O)O,8 µg/mL
9,N#Cc1cccc(-c2cnc(C(=O)Nc3ccc(C#N)cc3C(=O)O)o2)c1,2 µg/mL
10,Cc1noc(C)c1-c1ccc2cc(C(=O)Nc3ccc(C#N)cc3C(=O)O)n(C)c2c1,1 µg/mL
11,N#Cc1ccc(NC(=O)c2cc(CN=[N+]=[N-])on2)c(C(=O)O)c1,4 µg/mL
12,Cc1sc(C(=O)Nc2ccc(C#N)cc2C(=O)O)cc1S(=O)(=O)N(Cc1ccccc1)C(C)C,32 µg/mL
13,N#Cc1ccc(NC(=O)c2cc3ccc(Cl)cc3[nH]2)c(C(=O)O)c1,2 µg/mL
14,N#Cc1ccc(/C=C/c2noc3ccccc23)c(C(=O)O)c1,64 µg/mL
15,N#Cc1ccc(NC(=O)c2cc(CN(CCO)CCO)on2)c(C(=O)O)c1,8 µg/mL
16,N#Cc1ccc(NC(=O)c2cncc(-c3ccc(C(F)(F)F)cc3)c2)c(C(=O)O)c1,> 128 µg/mL
17,O=C(O)c1cc(Br)ccc1NC(=O)c1nsc2ccccc12,1 µg/mL
18,Cc1sc(C(=O)Nc2ccc(C#N)cc2C(=O)O)cc1S(=O)(=O)Nc1ccc2c(c1)CCC2,32 µg/mL
19,Cc1nc(S(=O)(=O)Nc2cccc3cc(C(=O)Nc4ccc(C#N)cc4C(=O)O)n(C)c23)cn1C,1 µg/mL
20,CC(C)CN1C(=O)c2ccc(C(=O)Nc3ccc(Br)cc3C(=O)O)cc2C1=O,2 µg/mL
21,N#Cc1ccc(NC(=O)c2nsc(Cl)c2Cl)c(C(=O)O)c1,4 µg/mL
22,Cc1sc(C(=O)Nc2ccc(C#N)cc2C(=O)O)cc1S(=O)(=O)N(C)CC(O)c1ccccc1 (stereo not shown),2 µg/mL
23,O=C(Nc1ccc(Br)cc1C(=O)O)c1cc(OCc2ccccc2)ccn1,4 µg/mL

# Now from value to molecule:
row,MIC,SMILES
1,1 µg/mL,O=C(O)c1cc(Br)ccc1NC(=O)c1noc2cc(Cl)ccc12
2,0.125 µg/mL,N#Cc1ccc(NC(=O)c2cc3cccc(S(=O)(=O)c4ccccc4)c3[nH]2)c(C(=O)O)c1
3,0.5 µg/mL,N#Cc1ccc(NC(=O)c2cc3cccc(NC(=O)Cc4cccs4)c3[nH]2)c(C(=O)O)c1
4,0.5 µg/mL,CCNc1ccc2onc(C(=O)Nc3ccc(C#N)cc3C(=O)O)c2c1
5,0.25 µg/mL,N#Cc1ccc(NC(=O)c2cc(-c3ccccc3)on2)c(C(=O)O)c1
6,0.125 µg/mL,N#Cc1ccc(NC(=O)c2cc3cccc(NS(=O)(=O)Cc4ccccc4)c3[nH]2)c(C(=O)O)c1
7,0.125 µg/mL,N#Cc1ccc(NC(=O)c2cc3cccc(NC(=O)Cc4ccccc4)c3[nH]2)c(C(=O)O)c1
8,0.125 µg/mL,Cn1c(C(=O)Nc2ccc(C#N)cc2C(=O)O)cc2cccc(OCC3CCC3)c21
9,0.5 µg/mL,Cl.Cn1c(C(=O)Nc2ccc(C#N)cc2C(=O)O)cc2cccc(OCC(O)CNCc3cccs3)c21 (stereo not shown)
10,1 µg/mL,N#Cc1ccc(NC(=O)c2cc3cccc(NC(=O)Cc4ccccc4C(F)(F)F)c3[nH]2)c(C(=O)O)c1
11,0.25 µg/mL,CCN(C(C)=O)c1ccc2onc(C(=O)Nc3ccc(C#N)cc3C(=O)O)c2c1
12,1 µg/mL,COc1ccc(CCCC(=O)Nc2cccc3cc(C(=O)Nc4ccc(C#N)cc4C(=O)O)[nH]c23)cc1
13,0.5 µg/mL,CC(=O)c1ccccc1-c1ccc2onc(C(=O)Nc3ccc(C#N)cc3C(=O)O)c2c1
14,0.125 µg/mL,O=C(Nc1ccc(Br)cc1C(=O)O)c1cc(SCc2ccccc2)on1
15,0.5 µg/mL,CCCS(=O)(=O)Nc1cccc2cc(C(=O)Nc3ccc(C#N)cc3C(=O)O)n(C)c12
16,0.125 µg/mL,Cc1ccsc1-c1cc(C(=O)Nc2ccc(C#N)cc2C(=O)O)no1
17,0.25 µg/mL,N#Cc1ccc(NC(=O)c2cc3cccc(NC(=O)COc4ccc5ccccc5c4)c3[nH]2)c(C(=O)O)c1
18,0.125 µg/mL,N#Cc1ccc(NC(=O)c2cc(-c3ccccc3O)on2)c(C(=O)O)c1
19,1 µg/mL,COC(=O)CCCCCCC(=O)Nc1cccc2cc(C(=O)Nc3ccc(C#N)cc3C(=O)O)[nH]c12
20,1 µg/mL,N#Cc1ccc(NC(=O)c2cc3cccc(NC(=O)c4ccc(Cl)nc4)c3[nH]2)c(C(=O)O)c1
21,1 µg/mL,Cn1c(C(=O)Nc2ccc(C#N)cc2C(=O)O)cc2c(Br)ccc(N)c21
22,1 µg/mL,O=C(Nc1ccc(Cl)cc1C(=O)O)c1cc(-c2ccccc2)on1 [drawing 1106]

row,MIC,SMILES
1,1 µg/mL,N#Cc1ccc(NC(=O)c2cc3cccc(NC(=O)c4cc(-c5ccccc5)on4)c3[nH]2)c(C(=O)O)c1
2,0.125 µg/mL,Cn1c(C(=O)Nc2ccc(C#N)cc2C(=O)O)cc2cccc(OC3CCC3)c21
3,0.125 µg/mL,Cn1c(C(=O)Nc2ccc(C#N)cc2C(=O)O)cc2cccc(NC(=O)NCc3ccccc3)c21
4,0.5 µg/mL,Cn1c(C(=O)Nc2ccc(C#N)cc2C(=O)O)cc2ccc(Br)c(N)c21
5,1 µg/mL,CCSc1cncc(C(=O)Nc2ccc(C#N)cc2C(=O)O)c1
6,0.25 µg/mL,CC(C)Sc1ccc(C(=O)Nc2ccc(C#N)cc2C(=O)O)cn1
7,0.125 µg/mL,CC(C)N(c1ccc2onc(C(=O)Nc3ccc(C#N)cc3C(=O)O)c2c1)S(C)(=O)=O
8,0.125 µg/mL,CCCCCCSc1ccc(C(=O)Nc2ccc(Cl)cc2C(=O)O)cn1
9,1 µg/mL,N#Cc1ccc(NC(=O)c2cc3cccc(NC(=O)CC4CCCC4)c3[nH]2)c(C(=O)O)c1
10,0.5 µg/mL,Cn1c(C(=O)Nc2ccc(C#N)cc2C(=O)O)cc2cccc(OCC3CCCCO3)c21 (stereo not shown)
11,1 µg/mL,Cc1noc(C)c1-c1cc(C(=O)Nc2ccc(C#N)cc2C(=O)O)no1
12,0.0075 µg/mL,CC(=O)Nc1ccc(-c2cc3onc(C(=O)Nc4ccc(Br)cc4C(=O)O)c3cc2NC(C)=O)c(C(F)(F)F)c1
13,0.5 µg/mL,N#Cc1ccc(NC(=O)c2noc3ccc(NCC4CC4)cc23)c(C(=O)O)c1
14,0.125 µg/mL,CCCCCCOc1cnc(C(=O)Nc2ccc(C#N)cc2C(=O)O)cn1
15,0.125 µg/mL,N#Cc1ccc(NC(=O)c2cc(-c3ccccc3Cl)on2)c(C(=O)O)c1
16,0.125 µg/mL,N#Cc1ccc(NC(=O)c2cc(-c3ccccc3OCC3CCC3)on2)c(C(=O)O)c1
17,0.125 µg/mL,N#Cc1ccc(NC(=O)c2cc3cccc(OCc4ccccc4)c3[nH]2)c(C(=O)O)c1
18,0.125 µg/mL,N#Cc1ccc(NC(=O)c2cc(-c3ccccc3OCCCCCCl)on2)c(C(=O)O)c1
19,0.5 µg/mL,Cn1c(C(=O)Nc2ccc(C#N)cc2C(=O)O)cc2ccc(N(S(=O)(=O)c3ccccc3)S(=O)(=O)c3ccccc3)cc21
20,0.125 µg/mL,N#Cc1ccc(NC(=O)c2cc(SCc3ccccc3)on2)c(C(=O)O)c1
21,0.125 µg/mL,CCCCCCSc1ccc(C(=O)Nc2ccc(Br)cc2C(=O)O)nn1
22,0.5 µg/mL,N#Cc1ccc(NC(=O)c2noc3ccc(-c4ccccc4CO)cc23)c(C(=O)O)c1

# Source: US20040110802A1, “Antibacterial benzoic acid derivatives” (priority 2002, published 2004)
